Key:
Type in all cases: in vivo
[1] = system: Orobanche cumana Wallr. seeds (race 'F'); experiment: Germination of preconditioned Orobanche cumana seeds on glass fiber filter paper in petri dishes; details: Table 5; 1.0 mg l^-1; seed lot IN153; mean, N = 5 x 100 seeds
[2] = system: Orobanche cumana Wallr. seeds (race 'F'); experiment: as above; details: for Germination (%): mean, N = 5 x 100 seeds; for Germination inducing effect on Orobanche cumana seeds (summary in words): summary of Tables 3 to 6
Experimental: The effect of compounds of Formula (I) on germination of Orobanche cumana Wallr. seeds was evaluated on glass fiber filter paper (GFFP) in petri dishes. Seeds were preconditioned at moisture and suitable temperature to become responsive to the specific chemical germination stimulants.
Test compounds were dissolved in DMSO (10 000 mg 1^−1) and stored at room temperature in a desiccators with desiccants. The stock solutions were dissolved with deionised water to the appropriate final test concentration.
Seeds of O. cumana race ‘F’ were collected from a sunflower field in Manzanilla (Seville, Spain) in 2006 (IN146) and 2008 (IN153), respectively and stored at room temperature. To separate seeds from heavy organic debris, a modified sucrose floatation technique as described by Hartman & Tanimonure (Plant Disease (1991), 75, p. 494) was applied. Seeds were filled into a separation funnel and stirred in water. When seeds floated to the surface, the water fraction containing heavy debris was discarded. Seeds were re-suspended in 2.5M sucrose solution (specific gravity of 1.20) and heavy debris was allowed to settle down for 60 min. After removing debris, seeds were disinfected in 1% sodium hypochlorite solution and 0.025% (v/v) Tween 20 for 2 min. The seeds were decanted onto two layers of cheesecloth, rinsed with sterile deionised water and re-suspended in sterile deionised water. Two ml of the seed suspension containing approximately 150-400 seeds were spread evenly on two layers of sterile glass fiber filter paper disc ([…]) in Petri dishes (Ø9 cm). After wetting the discs with 3 ml sterile deionised water, petri dishes were sealed with parafilm. Seeds were incubated for 10 days at 20° C. in the dark for seed conditioning. The upper disc with conditioned seeds was briefly dried, transferred to a petri dish lined with a dry GFFP disc, and wetted with 6 ml of the appropriate test solution. The compounds of formula (I) were tested at concentrations of 0.001, 0.01, and 0.1 mg 1^−1. The strigolactone analogue GR24 was included as positive control and 0.001% DMSO as negative control. All treatments were tested in five replicates. Seeds were re-incubated at 20° C. in the dark and examined for germination 10 days later. The radicles of germinated seeds were stained for 5 min with blue ink (MIGROS, Switzerland) in 5% acetic acid according to Long et al. Seed Science Research (2008), 18, p. 125). After staining, seeds were photographed using a camera stand mounted with a digital SLR camera (Canon EOS 5D). Germination of 100 seeds per replicate was evaluated on digital images. Seeds were considered germinated when the radicle protruded from the seed coat.

[3] = system: Brassica oleracea cv Botrytis (common cauliflower) seeds; experiment: Standard paper germination test for Brassica (cauliflower seeds, suboptimal conditions); details: 25 μM, 20° C., dark; for stimulation (extra germination compared to the DMSO treatment, expressed as percentage of the DMSO treatment): tropical cauliflower 3C150, seed batch 11B295; for acceleration (hours faster than the DMSO treatment to reach 50% of total germination) / t50 (time needed to reach 50% of total germination): tropical cauliflower 3C150, seed batch 11B552
Experimental: The effect of compounds of Formula (I) on the germination of Brassica oleracea cv Botrytis or common cauliflower was tested on two types of cauliflowers: temperate types and tropical types. These two types were chosen because they display different sensitivities to the light conditions and temperature during germination. Germination of a sensitive temperate type is inhibited by light at 10° C. while for the tropical types germination at 20° is stimulated by the presence of light.
The temperate seed batches tested are part of commercially produced seed batches of various varieties which are known to be sensitive to light at 10° C. These seeds were harvested and cleaned according standard commercial procedures. Ready seed batches were used (Ready indicates the processing level of these seeds: they have been cleaned and sized but received no other treatments). The tropical seed batches tested are part of seed batches produced as basic seed (for maintenance of the parental line) and were processed accordingly.
Germination was assessed using the standard paper germination test for Brassica: Fifty seeds were placed on blue germination paper, which was moistened with the appropriate solutions, in closed oblong germination boxes. Each condition was tested in duplo. Germination boxes were placed in controlled germination cabinets with the appropriate temperature and light conditions. Germination of seeds was counted at regular intervals. Seeds were considered to be germinated when the radical had protruded the testa and endosperm (radical size approximately 1 mm). Germination kinetics were analyzed using the Germinator analysis tool in order to obtain the parameters: Gmax (maximum germination) and t50 (time needed to reach 50% of the Gmax). The Germinator analysis tool is an add-in in for excel developed by the University of Wageningen: Joosen, R. V. L., J. Kodde, et al. (2010). (“Germinator: A Software Package for High-Throughput Scoring and Curve Fitting of Arabidopsis Seed Germination.” The Plant Journal 62(1): 148-159.)
Test compounds were dissolved in DMSO at a concentration of 50 mM and stored at −20° C. The strigolactone analogue GR24 (commercially available as a racemic mixture of 2 diastereoisomers, referred to as “synthetic strigolactone GR-24” and first prepared by Johnson A. W. & all, Journal of the Chemical Society, Perkin Transactions 1, 1981, page 1734-1743) was included as positive control. Germination solutions were prepared by diluting the stock solutions with demineralized water till 25 μM. As control solutions demineralized water and a 0.05% v/v DMSO solution were used.

[4] = Table 5, 0.01 mg l^-1, seed lot IN153
[5] = Table 5, 0.1 mg l^-1, seed lot IN153
[6] = Table 3, 0.001 mg l^-1, seed lot IN146, 10 days at 20° C. in the dark
[7] = Table 3, 0.01 mg l^-1, seed lot IN146
[8] = Table 3, 0.1 mg l^-1, seed lot IN146
[9] = Table 7, tropical cauliflower 3C150, seed batch 11B295 (Chili 2011)
[10] = Table 8, tropical cauliflower 3C150, seed batch 11B552 (South Africa 2010)
[11] = Table 4, 0.001 mg l^-1, seed lot IN153
[12] = Table 4, 0.01 mg l^-1, seed lot IN153
[13] = Table 4, 0.1 mg l^-1, seed lot IN153
[14] = Table 6, 0.001 mg l^-1, seed lot IN153
[15] = Table 6, 0.01 mg l^-1, seed lot IN153
[16] = Table 6, 0.1 mg l^-1, seed lot IN153

Compound	Germination (%) [1] [%]	Germination (%) [2, 4] [%]	Germination (%) [2, 5] [%]	Germination inducing effect on Orobanche cumana seeds (summary in words) [2]	Germination (%) [2, 6] [%]	Germination (%) [2, 7] [%]	Germination (%) [2, 8] [%]	Gmax (total germination) [3, 9] [%]	stimulation (extra germination compared to the DMSO treatment, expressed as percentage of the DMSO treatment) ([3]; Table 7) [%]	Gmax (total germination) [3, 10] [%]	acceleration (hours faster than the DMSO treatment to reach 50% of total germination) ([3]; Table 8) [h]	t50 (time needed to reach 50% of total germination) ([3]; Table 8) [h]	Germination (%) [2, 11] [%]	Germination (%) [2, 12] [%]	Germination (%) [2, 13] [%]	Germination (%) [2, 14] [%]	Germination (%) [2, 15] [%]	Germination (%) [2, 16] [%]	Germination (%) ([2]; Table 5, 0.001 mg l^-1, seed lot IN153)
CC1=C[C@@H](O/C=C2/C(=O)N[C@@H]3C4=CCCC[C@H]4C[C@H]23)OC1=O [Compound B2, (3E,3aR,4aS,8bS)-3-[[(2S)-4-methyl-5-oxo-2H-furan-2-yl]oxymethylene]-1,3a,4,4a,5,6,7,8b-octahydroindeno[1,2-b]pyrrol-2-one]	91.8	80.4	89.2	germination inducing effect	–	–	–	–	–	–	–	–	–	–	–	–	–	–	–
CC1=CC(O/C=C2/C(=O)N[C@@H]3C4=C(CCCC4(C)C)C[C@H]23)OC1=O (stereo partly drawn) [Compound P1, (3E,3aR,8bS)-8,8-dimethyl-3-[(4-methyl-5-oxo-2H-furan-2-yl)oxymethylene]-3a,4,5,6,7,8b-hexahydro-1H-indeno[1,2-b]pyrrol-2-one]	–	–	–	germination inducing effect	88	88	88.4	55.0	80.0	95.0	6.6	74.3	–	–	–	–	–	–	–
CC1=C[C@H](O/C=C2/C(=O)N[C@@H]3C4=CCCC[C@H]4C[C@H]23)OC1=O [Compound P2, (3E,3aR,4aS,8bS)-3-[[(2R)-4-methyl-5-oxo-2H-furan-2-yl]oxymethylene]-1,3a,4,4a,5,6,7,8b-octahydroindeno[1,2-b]pyrrol-2-one]	–	–	–	germination inducing effect	–	–	–	–	–	–	–	–	92.6	91.0	91.0	–	–	–	–
CC1=CC(O/C=C2/C(=O)N[C@@H]3C4=CCC[C@H]4C[C@H]23)OC1=O (some centres unmarked) [Compound P4, 3E 3-[[4-methyl-5-oxo-2H-furan-2-yl]oxymethylene]-1,3a,4,4a,5,6,7b-hexahydropentaleno[1,2-b]pyrrol-2-one]	–	–	–	germination inducing effect	–	–	–	–	–	–	–	–	–	–	–	73.4	82.6	68.4	–
CC1=C[C@H](O/C=C2/C(=O)N(C(=O)OC(C)(C)C)[C@@H]3C4=CCC[C@H]4C[C@H]23)OC1=O [Compound P5, Tert-butyl (3E,3aR,4aS,7bS)-3-[[4-methyl-5-oxo-2H-furan-2-yl]oxymethylene]-2-oxo-3a,4,4a,5,6,7b-hexahydropentaleno[1,2-b]pyrrole-1-carboxylate]	–	–	–	–	–	–	–	–	–	–	–	–	–	–	–	90.6	80.8	89.6	–
CC1=C[C@H](O/C=C2/C(=O)O[C@@H]3c4ccccc4C[C@H]23)OC1=O [GR24, reference compound]	–	86.6	95.2	–	20.4	61.0	86.2	73.0	140.0	100.0	8.7	72.2	67	65	78.4	26	51	84.2	88

From patent US9131688B2, “Strigolactam derivatives as plant growth regulating compounds” (Syngenta Participations AG, priority 2011, dated 2015)
